Tests used:
Format in all cases: in vivo
[1] = test system: Pennlinks creeping bentgrass for greens; experiment: Phytotoxic injury rating, greens creeping bentgrass (Example 16)
Description: In this Example, the effect of a fertilizer comprising lysine on cool season greens quality turfgrass growth was examined. The effects of lysine (HCl) and LIQUID LYSINE on a common type of golf course greens quality turfgrass (Pennlinks creeping bentgrass for greens, mown at 0.1875 in height of cut) were compared with those of urea, Milorganite and a blended fertilizer (a blend of methylene urea and urea in an approximately 1:1 ratio).
Fifteen fertilizer treatments comprising three concentrations of each fertilizer composition (Milorganite (N—P—K, 6-2-0), urea (N—P—K, 46-0-0), a blended fertilizer, LIQUID LYSINE N—P—K, 10-2-1), and lysine (HCl) (N—P—K, 15-2-1)) were prepared and applied to 3 replications of well established Pennlinks creeping bentgrass mown to 0.1875 in height cut. The urea, lysine (HCl), and LIQUID LYSINE were dissolved/suspended in 1.5 gal water prior to application. Each fertilizer treatment was applied in concentrations of 0.125 lb N/1000 ft^2/week, 0.250 lb N/1000 ft^2/week and 0.750 lb N/1000 ft^2/week. The urea, LIQUID LYSINE and lysine (HCl) were applied as foliar liquids, while Milorganite and blended fertilizer were applied as granular fertilizers. Plot size was 4 ft×8 ft laid out in a replicated complete block design. Plots were mowed at 0.1875 inches height before fertilizer application and mowed five times per week to 0.1875 inch height. Grass clippings were removed from the plots after each mowing. Irrigation (0.15 inch) was applied following application and daily thereafter. Plots were rated for turfgrass quality (scale of 1-9 where 9=dark green turf, 1=dead/brown turf, and 6=minimally acceptable turf) and phytotoxic injury (scale of 0-9 where 9=significant foliar injury and 2=minimally objectionable foliar injury) throughout the study period. Quality was measured prior to application (day 0) and day 37, day 70 and day 95 after application. Injury was measured on day 37, day 70 and day 95 after application. Ai) additional set of turfgrass plots were fertilized with three treatments of a soy concentrate fertilizer with the same application rates and methods. The quality and phytotoxic injury of the soy concentrate fertilizer plots were measured on day 95. All data was subject to statistical analysis and significant means were determined.

[2] = test system: Floratam St. Augustine grass; experiment: Phytotoxicity rating, St. Augustine grass (Example 9); details: for Phytotoxicity - St. Augustine Grass: scale 0-5, 5=worst
Description: (§1) In this Example, the effect of a fertilizer comprising lysine on warn season turfgrass growth was examined. The effects of lysine (HCl) and LIQUID LYSINE on a common type of lawn quality turfgrass (St. Augustine grass) were compared with those of urea and Milorganite. St. Augustine grass is a commonly utilized turfgrass throughout the warm, tropical zones for lawn turf and is a commercially significant species.
(§2) Twelve fertilizer treatments comprising three concentrations of each fertilizer composition (Milorganite (N—P—K, 6-2-0), urea N—P—K, 46-0-0), LIQUID LYSINE (N—P—K, 10-2-1), and lysine (HCl) (N—P—K, 15-2-1)) were prepared and applied to 4 replications of Floratam St. Augustine grass. The lysine (HCl) was dissolved in water prior to application. Each fertilizer treatment was applied in concentrations of 0.5 lb N/1000 ft^2/month, 1.0 lb N/1000 ft^2/month and 3.0 lb N/1000 ft^2/month. The urea, LIQUID LYSINE and lysine (HCl) were applied as foliar liquids, while Milorganite was applied as a granular fertilizer. Plot size was 1 m×2 m set up as a randomized complete block. Plots were mowed at 3.0 inches before fertilizer application. Irrigation (0.15 inch) was applied following application. Plots were rated for turfgrass quality and color (scale of 1-10 where 10=dark green turf, 1=dead/brown turf; and 6=minimally acceptable turf) and phytotoxicity (scale of 0-5, where 5=worst, and 2=minimally objectionable) throughout the study period. Quality, color, and phytotoxicity were measured on 2 days before application (day −2) and day 2, day 5, day 15 and day 21 after application. All data was subject to statistical analysis and significant means were determined. Average turfgrass quality ratings for the treatments are presented in Table 6 and the quality results for application rates of 1.0 lb N/1000 ft^2/month are graphically presented in FIG. 2.

[3] = test system: Floratam St. Augustine grass; experiment: Turfgrass quality and color ratings, St. Augustine grass (Example 9); set-up: key: 1-10 scale: 10 = dark green turf, 1 = dead/brown, 6 = minimally acceptable; details: scale 1-10
Description: as §1, §2

[4] = Weekly Rate 0.125 lbs N/1000 ft^2, Day 37
[5] = Weekly Rate 0.125 lbs N/1000 ft^2, Day 70
[6] = Weekly Rate 0.125 lbs N/1000 ft^2, Day 95
[7] = Weekly Rate 0.25 lbs N/1000 ft^2, Day 37
[8] = Weekly Rate 0.25 lbs N/1000 ft^2, Day 70
[9] = Weekly Rate 0.25 lbs N/1000 ft^2, Day 95
[10] = Weekly Rate 0.75 lbs N/1000 ft^2, Day 37
[11] = Weekly Rate 0.75 lbs N/1000 ft^2, Day 70
[12] = Weekly Rate 0.75 lbs N/1000 ft^2, Day 95
[13] = Monthly Rate 0.5 lbs N/1000 ft^2, Day 2
[14] = Monthly Rate 0.5 lbs N/1000 ft^2, Day 5
[15] = Monthly Rate 0.5 lbs N/1000 ft^2, Day 15
[16] = Monthly Rate 0.5 lbs N/1000 ft^2, Day 21
[17] = Monthly Rate 0.5 lbs N/1000 ft^2, Day −2 (before application)
[18] = Monthly Rate 1.0 lbs N/1000 ft^2, Day 2
[19] = Monthly Rate 1.0 lbs N/1000 ft^2, Day 5
[20] = Monthly Rate 1.0 lbs N/1000 ft^2, Day 15
[21] = Monthly Rate 1.0 lbs N/1000 ft^2, Day 21
[22] = Monthly Rate 1.0 lbs N/1000 ft^2, Day −2 (before application)
[23] = Monthly Rate 3.0 lbs N/1000 ft^2, Day 2
[24] = Monthly Rate 3.0 lbs N/1000 ft^2, Day 5
[25] = Monthly Rate 3.0 lbs N/1000 ft^2, Day 15
[26] = Monthly Rate 3.0 lbs N/1000 ft^2, Day 21
[27] = Monthly Rate 3.0 lbs N/1000 ft^2, Day −2 (before application)

For `Cl.NCCCC[C@H](N)C(=O)O` [Lys (HCl) 15% N, L-lysine monohydrochloride], the “Injury Rating - Greens Bentgrass” value [1, 4] was 1.0b, the “Injury Rating - Greens Bentgrass” value [1, 5] was 1.0 and the “Injury Rating - Greens Bentgrass” value [1, 6] was 2.3ab. The “Injury Rating - Greens Bentgrass” value [1, 7] was 1.0b, the “Injury Rating - Greens Bentgrass” value [1, 8] was 1.0 and the “Injury Rating - Greens Bentgrass” value [1, 9] was 2.7ab. For the same molecule, the “Injury Rating - Greens Bentgrass” value [1, 10] was 2.0a, the “Injury Rating - Greens Bentgrass” value [1, 11] was 1.3 and the “Injury Rating - Greens Bentgrass” value [1, 12] was 2.3ab. The “Phytotoxicity - St. Augustine Grass” value [2, 13] was 0.0c, the “Phytotoxicity - St. Augustine Grass” value [2, 14] was 0.4cd and the “Phytotoxicity - St. Augustine Grass” value [2, 15] was 0. For the same molecule, the “Phytotoxicity - St. Augustine Grass” value [2, 16] was 0, the “Phytotoxicity - St. Augustine Grass” value [2, 17] was 0 and the “Phytotoxicity - St. Augustine Grass” value [2, 18] was 0.0c. For the same molecule, the “Phytotoxicity - St. Augustine Grass” value [2, 19] was 1.1bcd, the “Phytotoxicity - St. Augustine Grass” value [2, 20] was 0 and the “Phytotoxicity - St. Augustine Grass” value [2, 21] was 0. For the same molecule, the “Phytotoxicity - St. Augustine Grass” value [2, 22] was 0, the “Phytotoxicity - St. Augustine Grass” value [2, 23] was 0.4bc and the “Phytotoxicity - St. Augustine Grass” value [2, 24] was 1.1bcd. For the same molecule, the “Phytotoxicity - St. Augustine Grass” value [2, 25] was 0, the “Phytotoxicity - St. Augustine Grass” value [2, 26] was 0 and the “Phytotoxicity - St. Augustine Grass” value [2, 27] was 0. The “Color Ratings - St. Augustine Grass” value [3, 13] was 6.5, the “Quality Ratings - St. Augustine Grass” value [3, 13] was 6.5 and the “Color Ratings - St. Augustine Grass” value [3, 14] was 7.3cd. The “Quality Ratings - St. Augustine Grass” value [3, 14] was 7.1bcd, the “Color Ratings - St. Augustine Grass” value [3, 15] was 7.0ef and the “Quality Ratings - St. Augustine Grass” value [3, 15] was 7.3ef. The “Color Ratings - St. Augustine Grass” value [3, 16] was 7.4c, the “Quality Ratings - St. Augustine Grass” value [3, 16] was 7.3cd and the “Color Ratings - St. Augustine Grass” value [3, 17] was 6.6. For the same molecule, the “Quality Ratings - St. Augustine Grass” value [3, 17] was 6.5, the “Color Ratings - St. Augustine Grass” value [3, 18] was 7.0 and the “Quality Ratings - St. Augustine Grass” value [3, 18] was 6.6. The “Color Ratings - St. Augustine Grass” value [3, 19] was 7.6bc, the “Quality Ratings - St. Augustine Grass” value [3, 19] was 7.3abc and the “Color Ratings - St. Augustine Grass” value [3, 20] was 7.6cd. The “Quality Ratings - St. Augustine Grass” value [3, 20] was 7.9cde, the “Color Ratings - St. Augustine Grass” value [3, 21] was 8.0abc and the “Quality Ratings - St. Augustine Grass” value [3, 21] was 7.9ab. The “Color Ratings - St. Augustine Grass” value [3, 22] was 6.6, the “Quality Ratings - St. Augustine Grass” value [3, 22] was 6.4 and the “Color Ratings - St. Augustine Grass” value [3, 23] was 6.6. The “Quality Ratings - St. Augustine Grass” value [3, 23] was 6.9, the “Color Ratings - St. Augustine Grass” value [3, 24] was 8.0ab and the “Quality Ratings - St. Augustine Grass” value [3, 24] was 7.5ab. For the same molecule, the “Color Ratings - St. Augustine Grass” value [3, 25] was 8.6a, the “Quality Ratings - St. Augustine Grass” value [3, 25] was 9.3a and the “Color Ratings - St. Augustine Grass” value [3, 26] was 8.0abc. For the same molecule, the “Quality Ratings - St. Augustine Grass” value [3, 26] was 7.9ab, the “Color Ratings - St. Augustine Grass” value [3, 27] was 6.6 and the “Quality Ratings - St. Augustine Grass” value [3, 27] was 6.3.
`NC(N)=O` [Urea, urea, reference compound] was tested, and the “Injury Rating - Greens Bentgrass” value [1, 4] was 1.0b, the “Injury Rating - Greens Bentgrass” value [1, 5] was 1.3 and the “Injury Rating - Greens Bentgrass” value [1, 6] was 3.0ab. The “Injury Rating - Greens Bentgrass” value [1, 7] was 1.0b, the “Injury Rating - Greens Bentgrass” value [1, 8] was 1.0 and the “Injury Rating - Greens Bentgrass” value [1, 9] was 2.0ab. For the same molecule, the “Injury Rating - Greens Bentgrass” value [1, 10] was 1.0b, the “Injury Rating - Greens Bentgrass” value [1, 11] was 1.0 and the “Injury Rating - Greens Bentgrass” value [1, 12] was 2.7ab. The phytotoxicity ([2]; 1.0 lb N/1000 ft^2 and 3.0 lb N/1000 ft^2 application rate) was “some phytotoxicity”, the “Phytotoxicity - St. Augustine Grass” value [2, 13] was 0.6bc and the “Phytotoxicity - St. Augustine Grass” value [2, 14] was 1.6bc. For the same molecule, the “Phytotoxicity - St. Augustine Grass” value [2, 15] was 0, the “Phytotoxicity - St. Augustine Grass” value [2, 16] was 0 and the “Phytotoxicity - St. Augustine Grass” value [2, 17] was 0. For the same molecule, the “Phytotoxicity - St. Augustine Grass” value [2, 18] was 1.5b, the “Phytotoxicity - St. Augustine Grass” value [2, 19] was 2.0ab and the “Phytotoxicity - St. Augustine Grass” value [2, 20] was 0. For the same molecule, the “Phytotoxicity - St. Augustine Grass” value [2, 21] was 0, the “Phytotoxicity - St. Augustine Grass” value [2, 22] was 0 and the “Phytotoxicity - St. Augustine Grass” value [2, 23] was 2.8a. For the same molecule, the “Phytotoxicity - St. Augustine Grass” value [2, 24] was 3.0a, the “Phytotoxicity - St. Augustine Grass” value [2, 25] was 0 and the “Phytotoxicity - St. Augustine Grass” value [2, 26] was 0. For the same molecule, the “Phytotoxicity - St. Augustine Grass” value [2, 27] was 0, the “Color Ratings - St. Augustine Grass” value [3, 13] was 6.9 and the “Quality Ratings - St. Augustine Grass” value [3, 13] was 6.8. For the same molecule, the “Color Ratings - St. Augustine Grass” value [3, 14] was 7.4cd, the “Quality Ratings - St. Augustine Grass” value [3, 14] was 7.1bcd and the “Color Ratings - St. Augustine Grass” value [3, 15] was 7.8bc. For the same molecule, the “Quality Ratings - St. Augustine Grass” value [3, 15] was 7.6def, the “Color Ratings - St. Augustine Grass” value [3, 16] was 7.6bc and the “Quality Ratings - St. Augustine Grass” value [3, 16] was 7.6bc. For the same molecule, the “Color Ratings - St. Augustine Grass” value [3, 17] was 6.4, the “Quality Ratings - St. Augustine Grass” value [3, 17] was 6.3 and the “Color Ratings - St. Augustine Grass” value [3, 18] was 6.9. For the same molecule, the “Quality Ratings - St. Augustine Grass” value [3, 18] was 6.8, the “Color Ratings - St. Augustine Grass” value [3, 19] was 7.6bc and the “Quality Ratings - St. Augustine Grass” value [3, 19] was 7.5ab. The “Color Ratings - St. Augustine Grass” value [3, 20] was 7.5cde, the “Quality Ratings - St. Augustine Grass” value [3, 20] was 7.9cde and the “Color Ratings - St. Augustine Grass” value [3, 21] was 7.9abc. The “Quality Ratings - St. Augustine Grass” value [3, 21] was 7.6bc, the “Color Ratings - St. Augustine Grass” value [3, 22] was 6.4 and the “Quality Ratings - St. Augustine Grass” value [3, 22] was 6.3. The “Color Ratings - St. Augustine Grass” value [3, 23] was 6.8, the “Quality Ratings - St. Augustine Grass” value [3, 23] was 6.9 and the “Color Ratings - St. Augustine Grass” value [3, 24] was 8.3a. For the same molecule, the “Quality Ratings - St. Augustine Grass” value [3, 24] was 7.3abc, the “Color Ratings - St. Augustine Grass” value [3, 25] was 8.8a and the “Quality Ratings - St. Augustine Grass” value [3, 25] was 9.1ab. For the same molecule, the “Color Ratings - St. Augustine Grass” value [3, 26] was 8.5a, the “Quality Ratings - St. Augustine Grass” value [3, 26] was 8.3a and the “Color Ratings - St. Augustine Grass” value [3, 27] was 6.1. The “Quality Ratings - St. Augustine Grass” value [3, 27] was 6.1.

Source: patent US7811352B2, “Fertilizer compositions and methods of using” (priority 2005, dated 2010)
